ChEMBL document CHEMBL4311972, “Discovery of a benzothiophene-flavonol halting miltefosine and antimonial drug resistance in Leishmania parasites through the application of medicinal chemistry, screening and genomics” (Eur J Med Chem, 2019)

Tests used:
Trypanosoma brucei = experiment: Antitrypanosomal activity against Trypanosoma brucei bloodstream form assessed as parasite growth inhibition incubated for 72 hrs by resazurin dye based assay; assay type: functional, organism-based
[1] = Cytotoxicity against human A549 cells assessed as cell growth at […] incubated for 48 hrs by Celltiter-Glo luminescence assay relative to control; assay type: cell-based; design: dose or concentration left out as unconfirmed; details: read-out: Activity
CYP3A4 = CYP3A4 (Homo sapiens, UniProt P08684); experiment: Inhibition of human microsomal CYP3A4 expressed in baculovirus infected insect cells at 10 uM using luciferin-IPA as substrate preincubated with enzyme/substrate mixture for 30 mins followed by further incubation with NADPH for 30 mins by CYP450 luciferase Glo assay relative to control; assay type: ADME; details: probe luciferin-IPA
CYP2C19 = CYP2C19 (Homo sapiens, UniProt P33261); experiment: Inhibition of human microsomal CYP2C19 expressed in baculovirus infected insect cells at 10 uM using luciferin-H EGE as substrate preincubated with enzyme/substrate mixture for 30 mins followed by further incubation with NADPH for 30 mins by CYP450 luciferase Glo assay relative to control; assay type: ADME; details: probe luciferin-H EGE
hERG (KCNH2) = hERG (KCNH2) (Homo sapiens, UniProt Q12809); experiment: Inhibition of human ERG at 10 uM incubated for 2 hrs by fluorescence polarization assay relative to control
CYP2C9 = CYP2C9 (Homo sapiens, UniProt P11712); experiment: Inhibition of human microsomal CYP2C9 expressed in baculovirus infected insect cells at 10 uM using luciferin-H as substrate preincubated with enzyme/substrate mixture for 30 mins followed by further incubation with NADPH for 30 mins by CYP450 luciferase Glo assay relative to control; assay type: ADME; details: probe luciferin-H
CYP2D6 = CYP2D6 (Homo sapiens, UniProt P10635); experiment: Inhibition of human microsomal CYP2D6 expressed in baculovirus infected insect cells at 10 uM using luciferin-ME as substrate preincubated with enzyme/substrate mixture for 30 mins followed by further incubation with NADPH for 30 mins by CYP450 luciferase Glo assay relative to control; assay type: ADME; details: probe luciferin-ME
[2] = Cytotoxicity against human THP1 cells by MTT assay; assay type: cell-based, THP-1
CYP1A2 = target: T1, CYP1A2 (Homo sapiens, UniProt P05177); experiment: Inhibition of human microsomal CYP1A2 expressed in baculovirus infected insect cells at 10 uM using luciferin-1A2 as substrate preincubated with enzyme/substrate mixture for 30 mins followed by further incubation with NADPH for 30 mins by CYP450 luciferase Glo assay relative to control; assay type: ADME; details: probe luciferin-1A2
T1 sequence (P05177 whole entry): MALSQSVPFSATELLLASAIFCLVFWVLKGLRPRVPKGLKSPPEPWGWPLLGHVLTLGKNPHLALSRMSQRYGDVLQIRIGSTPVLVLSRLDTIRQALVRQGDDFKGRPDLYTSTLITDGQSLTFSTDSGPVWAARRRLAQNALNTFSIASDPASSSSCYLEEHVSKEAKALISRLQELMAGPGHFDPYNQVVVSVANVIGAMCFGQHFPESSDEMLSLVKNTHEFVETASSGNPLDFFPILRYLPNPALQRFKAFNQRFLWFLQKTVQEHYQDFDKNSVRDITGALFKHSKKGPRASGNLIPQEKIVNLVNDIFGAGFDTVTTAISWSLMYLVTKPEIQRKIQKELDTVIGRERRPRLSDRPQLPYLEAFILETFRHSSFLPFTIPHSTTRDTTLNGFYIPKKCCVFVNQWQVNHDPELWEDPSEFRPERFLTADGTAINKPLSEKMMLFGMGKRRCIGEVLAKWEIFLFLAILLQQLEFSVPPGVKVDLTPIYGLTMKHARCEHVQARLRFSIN

786-0 = experiment: Mitochondrial toxicity in human 786-0 cells at 10 uM incubated with compound for 6 hrs followed by incubation with MitoTracker Red chloromethyl-X-rosamine dye for 45 mins by imaging analysis; assay type: cell-based; details: 786-0, 6 h
Leishmania infantum = experiment: Antileishmanial activity against luciferase expressing intracellular amastigote stage of Leishmania infantum infected in human THP1 cells assessed as parasite growth inhibition measured after 48 to 72 hrs by steady-glo luciferase assay; assay type: functional, organism-based
[3] = Trypanosoma brucei, 72 h, read-out: EC50

Chain of CYP2C9 (P11712 whole entry): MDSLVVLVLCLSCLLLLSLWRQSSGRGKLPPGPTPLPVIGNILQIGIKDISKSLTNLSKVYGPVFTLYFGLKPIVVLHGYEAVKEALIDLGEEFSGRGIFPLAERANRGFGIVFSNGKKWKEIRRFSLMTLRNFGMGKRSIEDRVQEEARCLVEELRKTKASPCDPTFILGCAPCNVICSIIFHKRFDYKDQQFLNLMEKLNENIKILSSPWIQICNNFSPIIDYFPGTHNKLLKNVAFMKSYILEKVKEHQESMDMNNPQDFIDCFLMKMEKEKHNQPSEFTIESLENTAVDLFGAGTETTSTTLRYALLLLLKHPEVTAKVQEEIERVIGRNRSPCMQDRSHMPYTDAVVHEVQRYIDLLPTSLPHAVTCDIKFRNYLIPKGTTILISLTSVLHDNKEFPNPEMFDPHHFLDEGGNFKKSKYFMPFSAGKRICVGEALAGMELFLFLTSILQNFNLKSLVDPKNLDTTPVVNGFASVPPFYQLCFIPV
Chain of CYP2C19 (P33261 whole entry): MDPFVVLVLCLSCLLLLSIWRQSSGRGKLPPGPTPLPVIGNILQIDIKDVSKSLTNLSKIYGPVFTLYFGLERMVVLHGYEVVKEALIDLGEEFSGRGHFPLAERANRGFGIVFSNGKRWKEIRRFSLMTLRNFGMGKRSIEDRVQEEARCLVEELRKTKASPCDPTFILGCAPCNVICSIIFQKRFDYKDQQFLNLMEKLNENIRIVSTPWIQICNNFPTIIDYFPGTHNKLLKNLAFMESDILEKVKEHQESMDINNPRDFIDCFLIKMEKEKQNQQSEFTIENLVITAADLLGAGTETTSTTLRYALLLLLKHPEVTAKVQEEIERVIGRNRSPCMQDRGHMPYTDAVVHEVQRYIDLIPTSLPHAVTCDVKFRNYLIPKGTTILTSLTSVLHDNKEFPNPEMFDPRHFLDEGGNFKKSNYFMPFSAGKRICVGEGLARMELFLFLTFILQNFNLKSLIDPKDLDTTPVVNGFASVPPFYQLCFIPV
Chain of CYP3A4 (P08684 whole entry): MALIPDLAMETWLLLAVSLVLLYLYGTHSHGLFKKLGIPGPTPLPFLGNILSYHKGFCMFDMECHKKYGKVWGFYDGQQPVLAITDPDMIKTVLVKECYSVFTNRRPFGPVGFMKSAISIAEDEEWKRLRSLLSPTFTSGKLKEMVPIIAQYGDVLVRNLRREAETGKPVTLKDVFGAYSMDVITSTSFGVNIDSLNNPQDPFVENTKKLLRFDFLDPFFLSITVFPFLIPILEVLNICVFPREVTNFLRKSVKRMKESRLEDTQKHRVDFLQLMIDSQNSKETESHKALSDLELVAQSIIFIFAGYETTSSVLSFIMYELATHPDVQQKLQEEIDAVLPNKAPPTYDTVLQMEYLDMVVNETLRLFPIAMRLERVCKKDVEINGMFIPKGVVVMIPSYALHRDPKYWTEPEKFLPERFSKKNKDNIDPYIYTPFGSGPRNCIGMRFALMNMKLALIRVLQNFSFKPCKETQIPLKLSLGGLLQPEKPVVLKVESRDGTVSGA
Chain of CYP2D6 (P10635 whole entry): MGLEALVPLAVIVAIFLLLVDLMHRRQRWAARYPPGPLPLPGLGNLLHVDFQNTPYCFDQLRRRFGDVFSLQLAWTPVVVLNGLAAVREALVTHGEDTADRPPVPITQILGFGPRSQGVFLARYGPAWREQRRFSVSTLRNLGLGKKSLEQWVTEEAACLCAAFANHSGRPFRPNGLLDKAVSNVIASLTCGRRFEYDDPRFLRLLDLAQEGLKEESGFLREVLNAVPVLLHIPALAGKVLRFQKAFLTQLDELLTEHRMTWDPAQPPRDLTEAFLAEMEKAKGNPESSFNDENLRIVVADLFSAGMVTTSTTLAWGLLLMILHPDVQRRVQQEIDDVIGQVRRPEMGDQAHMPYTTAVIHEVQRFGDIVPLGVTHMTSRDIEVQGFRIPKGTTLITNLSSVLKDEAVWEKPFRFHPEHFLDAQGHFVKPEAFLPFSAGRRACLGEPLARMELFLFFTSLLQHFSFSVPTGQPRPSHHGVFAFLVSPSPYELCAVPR
Chain of hERG (KCNH2) (Q12809 whole entry): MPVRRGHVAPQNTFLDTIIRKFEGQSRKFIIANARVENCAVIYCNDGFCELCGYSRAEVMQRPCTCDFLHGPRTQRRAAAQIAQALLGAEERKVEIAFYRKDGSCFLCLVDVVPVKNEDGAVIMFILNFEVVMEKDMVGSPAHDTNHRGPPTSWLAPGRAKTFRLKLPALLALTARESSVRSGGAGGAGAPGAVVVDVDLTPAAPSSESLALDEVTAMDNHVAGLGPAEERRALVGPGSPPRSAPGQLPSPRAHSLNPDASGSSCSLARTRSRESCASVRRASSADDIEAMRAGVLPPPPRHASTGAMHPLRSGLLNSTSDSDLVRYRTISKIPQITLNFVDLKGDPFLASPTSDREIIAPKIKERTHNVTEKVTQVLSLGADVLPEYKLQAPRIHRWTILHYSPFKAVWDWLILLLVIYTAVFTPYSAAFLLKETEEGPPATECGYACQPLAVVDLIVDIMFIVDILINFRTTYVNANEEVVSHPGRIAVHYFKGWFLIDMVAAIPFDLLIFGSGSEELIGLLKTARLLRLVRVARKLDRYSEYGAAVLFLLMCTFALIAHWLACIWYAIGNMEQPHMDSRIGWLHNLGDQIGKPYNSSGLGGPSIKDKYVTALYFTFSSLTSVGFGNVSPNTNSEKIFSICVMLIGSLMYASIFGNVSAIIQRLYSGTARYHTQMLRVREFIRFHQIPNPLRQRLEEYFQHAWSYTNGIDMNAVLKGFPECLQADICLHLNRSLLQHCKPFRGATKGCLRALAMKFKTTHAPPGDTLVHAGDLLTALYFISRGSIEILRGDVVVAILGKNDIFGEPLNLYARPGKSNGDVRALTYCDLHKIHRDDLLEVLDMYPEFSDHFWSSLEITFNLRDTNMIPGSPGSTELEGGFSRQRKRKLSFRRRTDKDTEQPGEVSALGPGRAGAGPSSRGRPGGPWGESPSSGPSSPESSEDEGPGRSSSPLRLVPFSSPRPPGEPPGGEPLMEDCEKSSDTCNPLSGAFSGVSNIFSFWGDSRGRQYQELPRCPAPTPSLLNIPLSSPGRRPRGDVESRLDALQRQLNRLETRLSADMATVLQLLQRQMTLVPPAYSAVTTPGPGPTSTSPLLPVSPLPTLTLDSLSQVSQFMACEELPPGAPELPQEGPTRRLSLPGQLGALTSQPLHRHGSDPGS

SMILES | EC50 (Trypanosoma brucei) | inhibition at 0.5 h, 10 µM (CYP3A4) [%] | inhibition at 0.5 h, 10 µM (CYP2C19) [%] | inhibition at 0.5 h, 10 µM (CYP2C9) [%] | inhibition at 0.5 h, 10 µM (CYP2D6) [%] | inhibition at 0.5 h, 10 µM (CYP1A2) [%] | EC50 (Trypanosoma brucei; [3]) [µM] | viability at 48 h [1] [%] | inhibition at 2 h, 10 µM (hERG (KCNH2)) [%] | CC50 [2] [µM] | Activity (786-0) [%] | EC50 (Leishmania infantum)
COc1ccc2oc(-c3ccco3)c(O)c(=O)c2c1 | Not Active | 14.1 | 54.3 | 71.3 | 50.8 | 104 |  | 106 | -1.31 | 50 to 100 | -0.99 | 
COc1ccc2oc(-c3csc4ccccc34)c(OC(=O)N(C)C)c(=O)c2c1 | Not Active | 47.4 | 26.3 | -6.48 | 20.3 | 61.1 |  | 104 | -17.9 | 12.5 to 25 | -42.09 | Not Active
O=c1c(O)c(-c2csc3ccccc23)oc2ccccc12 |  | -1.84 | 31.3 | 28.9 | 6.45 | 97.7 | 2.6 | 50.3 | -22.7 | < 25 | -22.23 | Not Active
Cc1csc(-c2oc3cccc(O)c3c(=O)c2O)c1 | Not Active | 6.11 | 27.3 | 71.8 | 10.9 | 106 |  | 56.8 | 34.2 | > 100 | 5.8 | 
COc1ccc2c(=O)c(O)c(-c3ccco3)oc2c1 | Not Active | -0.65 | 68.7 | 46.3 | 23.4 | 103 |  | 102 | -3.37 | > 100 | -1.6 | 
COc1ccc2c(=O)c(O)c(-c3csc4ccccc34)oc2c1 |  | 5.81 | 62.3 | 28.1 | 20.3 | 90 | 3.1 | 53.9 | -4.35 | 25 to 50 | -22.67 | Not Active

The next lines start with results.

EC50 (Trypanosoma brucei) | inhibition at 0.5 h, 10 µM (CYP3A4) [%] | inhibition at 0.5 h, 10 µM (CYP2C19) [%] | inhibition at 0.5 h, 10 µM (CYP2C9) [%] | inhibition at 0.5 h, 10 µM (CYP2D6) [%] | inhibition at 0.5 h, 10 µM (CYP1A2) [%] | EC50 (Trypanosoma brucei; [3]) [µM] | SMILES | viability at 48 h [1] [%] | inhibition at 2 h, 10 µM (hERG (KCNH2)) [%] | CC50 [2] [µM] | Activity (786-0) [%] | EC50 (Leishmania infantum)
 | 22 | -1.53 | -0.02 | 3.57 | 89.2 |  | COc1ccc2oc(-c3cn(C)c4ccccc34)c(O)c(=O)c2c1 | 18.6 | 12.7 |  | -1.87 | 
Not Active | 7.49 | 73.2 | 47.6 | 36.2 | 96.7 |  | O=c1c(O)c(-c2ccco2)oc2ccc(O)cc12 | 104 | 6.43 | 20 to 50 | 4.3 | 
 | 50.1 | 31.8 | 33.6 | 11.8 | 51.6 | 3.7 | COc1ccc2oc(-c3csc4ccccc34)c(OC(=O)C(C)(C)C)c(=O)c2c1 | 133 | -23.8 | 12.5 to 25 | -47.48 | Not Active
Not Active | 46.9 | 54.5 | 14.1 | 50.2 | 92.4 |  | CCOc1c(-c2csc3ccccc23)oc2ccc(OC)cc2c1=O | 120 | 11.8 | 25 to 50 | -27.16 | Not Active
